Consider one compound from ChEMBL document CHEMBL4665719, “Development of SKI-349, a dual-targeted inhibitor of sphingosine kinase and microtubule polymerization” (Bioorg Med Chem Lett, 2020).

In one series the target is Tubulin (Homo sapiens) (UniProt P68371+Q9H4B7+P0DPH7+P68366+Q13509+Q71U36+P04350+Q3ZCM7+P07437+P68363+Q9BQE3+Q6PEY2+Q13885+Q9BVA1+Q9BUF5). The experiment in a line: Inhibition of tubulin polymerization in human MOLM-13 cells assessed as disruption of microtubule network at 500 nM after 18 hrs by FITC-staining based flow cytometry analysis. The class given is cell-based. (In flow cytometry, cells or beads pass a laser one at a time.)

A short description of series [1]: Toxicity in sub-lethal irradiated C57BL/6J mouse xenografted with […] MLL-AF9 cells assessed as platelet level at 1 mg/kg measured after 2 weeks (reference value: 687 +/- 53 10^3/ml). The class given is organism-based. As to conditions: in vivo, 336 h. (Xenograft models place foreign cells or tissue in a host animal.)
In another series the target is Tubulin beta. The series can be described thus: Binding affinity to beta tubulin in HEK293 cells assessed as disruption of microtubule polymerization by ITDRF-CETSA assay. The class given is cell-based, Homo sapiens.
Series [2] has as its target Tyrosine-protein kinase JAK1 (Homo sapiens) (UniProt P23458). The experiment in a line: Inhibition of wild-type human partial length JAK1 JH2 pseudokinase domain (R537 to D855 residues) expressed in mammalian expression system assessed as residual activity at 1 uM by Kinomescan method relative to control.
Series [3] addresses Glycogen synthase kinase-3 beta (Homo sapiens) (UniProt P49841). The experiment in a line: Inhibition of wild-type human full length GSK3B (M1 to T433 residues) expressed in mammalian expression system assessed as residual activity at 1 uM by Kinomescan method relative to control.
A short description of series [4]: Antitumor activity against human MLL-AF9 xenografted in sub-lethal irradiated C57BL/6J mouse assessed as increase in mouse survival at 1 mg/kg administered every day relative to control. Type of series: functional. The settings on record: MLL-AF9, light or radiation study.
The next series deals with Sphingosine kinase 1 (Homo sapiens, UniProt Q9NYA1). The experiment in a line: Inhibition of recombinant His6x-tagged human SphK1 expressed in HEK293 cells assessed as reduction in S1P formation using D-erythro-sphingosine as substrate by […].
Sphingosine kinase 1, sequence (Q9NYA1 whole entry): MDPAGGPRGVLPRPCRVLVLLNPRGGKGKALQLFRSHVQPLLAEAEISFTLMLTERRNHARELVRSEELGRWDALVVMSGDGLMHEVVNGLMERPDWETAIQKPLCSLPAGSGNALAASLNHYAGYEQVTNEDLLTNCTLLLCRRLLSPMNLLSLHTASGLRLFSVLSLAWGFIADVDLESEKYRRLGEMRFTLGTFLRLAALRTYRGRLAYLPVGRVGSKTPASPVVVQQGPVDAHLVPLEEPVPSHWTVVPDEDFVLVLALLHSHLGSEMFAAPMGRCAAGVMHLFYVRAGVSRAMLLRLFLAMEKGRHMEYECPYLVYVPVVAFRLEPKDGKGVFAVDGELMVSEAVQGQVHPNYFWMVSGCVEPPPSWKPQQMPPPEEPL
Series [5] deals with T1, Sphingosine kinase 1/2 (Homo sapiens) (UniProt Q9NRA0+Q9NYA1). The experiment in a line: Inhibition of SPHK1/SPHK2 in human HL-60 cells assessed as C18:0 ceramide level assessed per 10^6 cells at 500 nM after 24 hrs by LC-ESI/MS analysis (reference value: 1.6 +/- 0.2 pmol). The class given is cell-based.
T1 sequence (Q9NYA1 whole entry, looked up, one chain of several): as the sequence (Q9NYA1 whole entry) above
The target in series [6] is T1, Sphingosine kinase 1/2 (Homo sapiens). The series can be described thus: Inhibition of SPHK1/SPHK2 in human HL-60 cells assessed as sphingosine level assessed per 10^6 cells at 500 nM after 24 hrs by LC-ESI/MS analysis (reference value: 18.3 +/- 3.5 pmol). The class given is cell-based.
The nature of series [7]: Effect on hematopoiesis in sub-lethal irradiated C57BL/6J mouse xenografted with […] MLL-AF9 cells assessed as CD45.1+/CD34 cells in spleen at 1 mg/kg measured after 6 weeks by flow cytometry analysis (reference value: 90 %). As to conditions: in vivo, 1008 h. Type of series: ADME, organism-based.
Series [8] is described as follows: Effect on hematopoiesis in sub-lethal irradiated C57BL/6J mouse xenografted with […] MLL-AF9 cells assessed as CD45.1+/CD34 cells in spleen at 2.5 mg/kg measured after 6 weeks by flow cytometry analysis (reference value: 90 %). Type of series: ADME, organism-based. As to conditions: in vivo, 1008 h.
For the next series, the system named is HL-60. The series can be described thus: Cytotoxicity against human HL-60 cells assessed as reduction in cell viability after 48 hrs by MTT assay. The class given is functional, cell-based. As to conditions: HL-60, 48 h. A general note: Formazan colour is commonly taken as a measure of viable cells.
The target in series [9] is Glycogen synthase kinase-3 alpha (Homo sapiens) (UniProt P49840). The experiment in a line: Inhibition of wild type full length human GSK3A (M1 to S483 residues) expressed in bacterial expression assessed as residual activity at 1 uM by Kinomescan method relative to control.
Glycogen synthase kinase-3 alpha (Homo sapiens), sequence (P49840 2-483 limits assumed): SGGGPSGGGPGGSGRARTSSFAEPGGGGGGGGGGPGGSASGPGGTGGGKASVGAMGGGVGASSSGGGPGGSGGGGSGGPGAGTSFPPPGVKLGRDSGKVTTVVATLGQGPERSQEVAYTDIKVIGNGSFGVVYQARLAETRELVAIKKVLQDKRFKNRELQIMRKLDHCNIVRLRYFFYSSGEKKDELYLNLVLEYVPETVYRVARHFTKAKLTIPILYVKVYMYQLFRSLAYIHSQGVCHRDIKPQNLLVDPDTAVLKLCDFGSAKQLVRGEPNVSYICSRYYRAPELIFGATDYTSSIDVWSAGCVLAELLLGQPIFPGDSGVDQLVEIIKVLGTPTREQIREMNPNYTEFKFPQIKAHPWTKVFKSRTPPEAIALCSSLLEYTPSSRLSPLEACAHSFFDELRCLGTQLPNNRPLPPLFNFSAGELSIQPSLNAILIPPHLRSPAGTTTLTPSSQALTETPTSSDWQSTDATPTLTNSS
Series [10] is described as follows: Toxicity in sub-lethal irradiated C57BL/6J mouse xenografted with […] MLL-AF9 cells assessed as platelet level at 5 mg/kg measured after 2 weeks (reference value: 687 +/- 53 10^3/ml). Type of series: organism-based. As to conditions: in vivo, 336 h.
In series [11] the target is T2, Sphingosine kinase 2 (Homo sapiens) (UniProt Q9NRA0).
T2 sequence (whole entry): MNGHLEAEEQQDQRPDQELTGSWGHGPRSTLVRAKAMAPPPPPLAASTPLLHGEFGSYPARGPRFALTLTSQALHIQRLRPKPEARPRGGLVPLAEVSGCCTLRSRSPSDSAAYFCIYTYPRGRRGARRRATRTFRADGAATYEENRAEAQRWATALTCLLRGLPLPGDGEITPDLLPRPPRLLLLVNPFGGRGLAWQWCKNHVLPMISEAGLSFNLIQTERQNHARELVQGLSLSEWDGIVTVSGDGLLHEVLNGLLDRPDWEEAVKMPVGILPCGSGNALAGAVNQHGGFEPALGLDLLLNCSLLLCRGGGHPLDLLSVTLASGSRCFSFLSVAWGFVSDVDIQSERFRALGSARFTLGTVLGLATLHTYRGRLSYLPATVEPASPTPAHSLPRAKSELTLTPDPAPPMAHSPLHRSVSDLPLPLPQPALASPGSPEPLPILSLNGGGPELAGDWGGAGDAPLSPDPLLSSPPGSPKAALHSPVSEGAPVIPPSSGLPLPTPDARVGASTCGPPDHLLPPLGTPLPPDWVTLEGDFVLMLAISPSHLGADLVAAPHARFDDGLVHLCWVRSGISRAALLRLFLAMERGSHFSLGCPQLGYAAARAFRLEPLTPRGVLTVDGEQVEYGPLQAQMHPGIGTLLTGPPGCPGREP
The series can be described thus: Inhibition of SphK2 (unknown origin) catalytic activity at 2 to 5 uM. The settings on record: dose microM 2-5.

Series [12] is described as follows: Toxicity in sub-lethal irradiated C57BL/6J mouse xenografted with […] MLL-AF9 cells assessed as HCT level at 5 mg/kg measured after 2 weeks (reference value: 45 +/- 1.4 %). Type of series: organism-based. As to conditions: in vivo, 336 h.
For series [13], the target named is Cyclin-dependent kinase 1 (Homo sapiens) (UniProt P06493). The series can be described thus: Activation of CDK1 in human HL-60 cells assessed as induction of Bcl2 phosphorylation at Ser70 residue at 300 nM after 24 hrs in presence of Ro-3306 by Western blot analysis. Type of series: cell-based.
Cyclin-dependent kinase 1 (Homo sapiens), sequence (P06493 whole entry, looked up): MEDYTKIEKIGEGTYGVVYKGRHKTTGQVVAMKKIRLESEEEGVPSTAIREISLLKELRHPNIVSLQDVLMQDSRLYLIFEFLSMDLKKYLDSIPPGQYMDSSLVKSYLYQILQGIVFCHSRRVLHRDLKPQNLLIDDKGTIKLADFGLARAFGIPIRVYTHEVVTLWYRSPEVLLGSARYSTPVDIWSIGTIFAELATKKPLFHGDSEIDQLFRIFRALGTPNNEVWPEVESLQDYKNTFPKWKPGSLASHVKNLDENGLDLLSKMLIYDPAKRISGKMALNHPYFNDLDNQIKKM
A short description of series [14]: Effect on hematopoiesis in sub-lethal irradiated C57BL/6J mouse xenografted with […] MLL-AF9 cells assessed as CD45.1+/CD34 cells in spleen at 5 mg/kg measured after 6 weeks by flow cytometry analysis (reference value: 90 %). The class given is ADME, organism-based. The settings on record: in vivo, 1008 h.
In series [15] the target is Cyclin-dependent kinase 1 (Homo sapiens) (UniProt P06493). The series can be described thus: Activation of CDK1 in human HL60/VCR cells assessed as induction of Bcl2 phosphorylation at Ser70 residue at 300 nM after 24 hrs by Western blot analysis. The class given is cell-based. As to conditions: filed as activator.
Series [16] in a line: Toxicity in sub-lethal irradiated C57BL/6J mouse xenografted with […] MLL-AF9 cells assessed as HCT level at 1 mg/kg measured after 2 weeks (reference value: 45 +/- 1.4 %). Type of series: organism-based. The settings on record: in vivo, 336 h.
Series [17] can be described thus: Effect on hematopoiesis in sub-lethal irradiated C57BL/6J mouse xenografted with […] MLL-AF9 cells assessed as CD45.1+/CD34 cells in bone marrow at 1 mg/kg measured after 6 weeks by flow cytometry analysis (reference value: 93 %). Type of series: ADME, organism-based. The settings on record: in vivo, 1008 h.
Series [18] is described as follows: Toxicity in sub-lethal irradiated C57BL/6J mouse xenografted with […] MLL-AF9 cells assessed as RBC level at 5 mg/kg measured after 2 weeks (reference value: 9.8 +/- 0.3 10^6/ml). The class given is organism-based. As to conditions: in vivo, 336 h.

The source made the active and inactive calls. The calls are words filed in the database; no cut-off is given here.

Tyrosine-protein kinase JAK1 (Homo sapiens), sequence (P23458 whole entry, the tested form may be a part): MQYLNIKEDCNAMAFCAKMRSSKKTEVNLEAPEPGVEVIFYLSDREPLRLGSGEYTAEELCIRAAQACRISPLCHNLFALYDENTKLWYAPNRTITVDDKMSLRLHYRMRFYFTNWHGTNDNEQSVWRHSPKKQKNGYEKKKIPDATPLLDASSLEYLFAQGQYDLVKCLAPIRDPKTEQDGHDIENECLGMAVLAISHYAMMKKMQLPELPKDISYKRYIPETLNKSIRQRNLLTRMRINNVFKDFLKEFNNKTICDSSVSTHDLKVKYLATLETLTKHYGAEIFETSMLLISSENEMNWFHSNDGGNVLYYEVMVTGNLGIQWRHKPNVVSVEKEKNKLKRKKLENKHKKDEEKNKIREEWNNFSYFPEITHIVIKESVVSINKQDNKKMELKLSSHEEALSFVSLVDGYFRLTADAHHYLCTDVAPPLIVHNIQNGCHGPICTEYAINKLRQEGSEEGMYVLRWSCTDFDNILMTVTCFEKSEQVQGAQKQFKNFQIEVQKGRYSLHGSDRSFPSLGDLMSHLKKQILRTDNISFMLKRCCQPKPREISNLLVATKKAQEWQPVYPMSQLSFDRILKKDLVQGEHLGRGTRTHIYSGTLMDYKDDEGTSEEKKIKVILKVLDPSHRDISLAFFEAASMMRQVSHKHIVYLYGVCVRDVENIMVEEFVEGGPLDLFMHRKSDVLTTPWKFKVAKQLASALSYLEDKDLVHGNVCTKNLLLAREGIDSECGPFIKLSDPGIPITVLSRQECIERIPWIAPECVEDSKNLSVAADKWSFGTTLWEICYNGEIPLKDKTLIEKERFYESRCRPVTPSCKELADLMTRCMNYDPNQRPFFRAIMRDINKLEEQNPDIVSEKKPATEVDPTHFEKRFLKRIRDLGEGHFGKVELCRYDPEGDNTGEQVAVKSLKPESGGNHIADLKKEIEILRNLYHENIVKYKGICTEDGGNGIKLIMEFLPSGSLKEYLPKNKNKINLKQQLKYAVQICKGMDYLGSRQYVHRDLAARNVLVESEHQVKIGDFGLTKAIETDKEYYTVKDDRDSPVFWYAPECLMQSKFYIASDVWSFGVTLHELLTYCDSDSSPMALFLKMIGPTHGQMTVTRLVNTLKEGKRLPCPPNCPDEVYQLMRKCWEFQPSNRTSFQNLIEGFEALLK
Glycogen synthase kinase-3 beta (Homo sapiens), sequence (P49841 whole entry, looked up, the tested form may be a part): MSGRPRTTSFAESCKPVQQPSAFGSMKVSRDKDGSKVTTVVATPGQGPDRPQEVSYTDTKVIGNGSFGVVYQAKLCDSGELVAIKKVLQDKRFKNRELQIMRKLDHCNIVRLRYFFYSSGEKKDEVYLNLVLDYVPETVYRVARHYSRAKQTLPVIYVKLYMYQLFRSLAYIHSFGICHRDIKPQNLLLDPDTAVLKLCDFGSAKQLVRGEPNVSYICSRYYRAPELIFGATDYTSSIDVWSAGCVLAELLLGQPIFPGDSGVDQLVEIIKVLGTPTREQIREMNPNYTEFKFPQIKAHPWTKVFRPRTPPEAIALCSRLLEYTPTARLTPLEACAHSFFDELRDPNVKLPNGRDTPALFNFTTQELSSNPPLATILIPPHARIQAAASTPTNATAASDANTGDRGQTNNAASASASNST

For `COc1ccc(Nc2nc(N)c(C(=O)c3ccc(OC)c(OC)c3)s2)cc1`, the inhibition entry on Tubulin (Homo sapiens) is “Active”. For the same compound, the Activity is 1193 10^3/ml in series [1]; 5.4% in series [2]; 27% in series [3]; 4.7 pmol in series [5]; 27 pmol in series [6]; 8% in [7]. Further, the Activity in series [8] was 6%; in series [9] it was 2.5%; in series [10], 1089 10^3/ml; in series [12], 41%; in series [14] it was 7%; in series [16] it was 44%. In addition, the Activity in series [17] is given as 1%; in [18] it was 9 10^6/ml. The IC50 (in general, the concentration needed to halve the response being measured) at Tubulin beta came to 25 nM; at Sphingosine kinase 1 it was 30 µM; in the series on HL-60, 22 nM. For the same compound, the survival at 1 mg/kg in series [4] turned out to be 100%. The inhibition result in series [11] is “inactive”. In [13], the outcome was inactive. Besides, in [15], the outcome was Active.
